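All cell lines were grown in 96-well plates and treated with compound for 48 hours. TGI: concentration producing complete growth inhibition.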
Key:
Assay in all cases: NCI anticancer screen, dose series, 48 h
RPMI-8226 leukemia = tested on: RPMI-8226 leukemia
DU-145 prostate = tested on: DU-145 prostate
SK-MEL-2 melanoma = tested on: SK-MEL-2 melanoma
OVCAR-4 ovarian = tested on: OVCAR-4 ovarian
PC-3 prostate = tested on: PC-3 prostate
SN12C renal = tested on: SN12C renal
NCI-H226 lung = tested on: NCI-H226 lung
ACHN renal = tested on: ACHN renal
RXF 393 renal = tested on: RXF 393 renal
BT-549 breast = tested on: BT-549 breast
NCI-H460 lung = tested on: NCI-H460 lung
HOP-92 NSCLC = tested on: HOP-92 NSCLC
T-47D breast = tested on: T-47D breast
NCI/ADR-RES ovarian = tested on: NCI/ADR-RES ovarian
SK-OV-3 ovarian = tested on: SK-OV-3 ovarian
COLO 205 colon = tested on: COLO 205 colon
A498 renal = tested on: A498 renal
LOX IMVI melanoma = tested on: LOX IMVI melanoma
EKVX NSCLC = tested on: EKVX NSCLC
HT29 colon = tested on: HT29 colon
CAKI-1 renal = tested on: CAKI-1 renal
HCC-2998 colon = tested on: HCC-2998 colon
SK-MEL-5 melanoma = tested on: SK-MEL-5 melanoma
SK-MEL-28 melanoma = tested on: SK-MEL-28 melanoma
HL-60(TB) leukemia = tested on: HL-60(TB) leukemia
HCT-116 colon = tested on: HCT-116 colon
MDA-MB-231 breast = tested on: MDA-MB-231 breast
IGROV1 ovarian = tested on: IGROV1 ovarian
OVCAR-3 ovarian = tested on: OVCAR-3 ovarian
SW-620 colon = tested on: SW-620 colon
MCF7 breast = tested on: MCF7 breast
NCI-H23 lung = tested on: NCI-H23 lung
MDA-MB-435 = tested on: MDA-MB-435
U251 CNS = tested on: U251 CNS
SF-268 CNS = tested on: SF-268 CNS
A549 NSCLC = tested on: A549 NSCLC
NCI-H522 lung = tested on: NCI-H522 lung
UACC-257 melanoma = tested on: UACC-257 melanoma
HCT-15 colon = tested on: HCT-15 colon
KM12 colon = tested on: KM12 colon
M14 melanoma = tested on: M14 melanoma
UACC-62 melanoma = tested on: UACC-62 melanoma
786-0 renal = tested on: 786-0 renal
SF-539 CNS = tested on: SF-539 CNS
HOP-62 NSCLC = tested on: HOP-62 NSCLC
MOLT-4 leukemia = tested on: MOLT-4 leukemia
MDA-N = tested on: MDA-N
MALME-3M melanoma = tested on: MALME-3M melanoma
TK-10 renal = tested on: TK-10 renal
SNB-75 CNS = tested on: SNB-75 CNS
OVCAR-5 ovarian = tested on: OVCAR-5 ovarian
UO-31 renal = tested on: UO-31 renal
SNB-19 CNS = tested on: SNB-19 CNS
SF-295 CNS = tested on: SF-295 CNS
HS 578T breast = tested on: HS 578T breast
CCRF-CEM leukemia = tested on: CCRF-CEM leukemia
OVCAR-8 ovarian = tested on: OVCAR-8 ovarian
SR leukemia = tested on: SR leukemia
K-562 leukemia = tested on: K-562 leukemia

CN(CCNC(=O)c1nn(-c2ccccc2)c2c1ccc1ccccc12)CCNC(=O)c1nn(-c2ccccc2)c2c1ccc1ccccc12
TGI (RPMI-8226 leukemia): 1.8 µM | TGI (DU-145 prostate): 70.2 µM | TGI (SK-MEL-2 melanoma): 3.5 µM | TGI (OVCAR-4 ovarian): 22.1 µM | TGI (PC-3 prostate): 7.08 µM | TGI (SN12C renal): 3.46 µM | TGI (NCI-H226 lung): 7.7 µM | TGI (ACHN renal): 5.51 µM | TGI (RXF 393 renal): 3.34 µM | TGI (BT-549 breast): 21.8 µM | TGI (NCI-H460 lung): 2.99 µM | TGI (HOP-92 NSCLC): 3.79 µM | TGI (T-47D breast): 6.95 µM | TGI (NCI/ADR-RES ovarian): 9.15 µM | TGI (SK-OV-3 ovarian): 7.28 µM | TGI (COLO 205 colon): 2.99 µM | TGI (A498 renal): 5.29 µM | TGI (LOX IMVI melanoma): 3.18 µM | TGI (EKVX NSCLC): 4.41 µM | TGI (HT29 colon): 15.8 µM | TGI (CAKI-1 renal): 15.6 µM | TGI (HCC-2998 colon): 2.92 µM | TGI (SK-MEL-5 melanoma): 3.1 µM | TGI (SK-MEL-28 melanoma): 3.23 µM | TGI (HL-60(TB) leukemia): 3.94 µM | TGI (HCT-116 colon): 2.87 µM | TGI (MDA-MB-231 breast): 2.74 µM | TGI (IGROV1 ovarian): 5.27 µM | TGI (OVCAR-3 ovarian): 4.16 µM | TGI (SW-620 colon): 4.46 µM | TGI (MCF7 breast): 3.91 µM | TGI (NCI-H23 lung): 6.78 µM | TGI (MDA-MB-435): 4 µM | TGI (U251 CNS): 3.05 µM | TGI (SF-268 CNS): 4.6 µM | TGI (A549 NSCLC): 10.6 µM | TGI (NCI-H522 lung): 3.6 µM | TGI (UACC-257 melanoma): 3.22 µM | TGI (HCT-15 colon): 3.39 µM | TGI (KM12 colon): 6.22 µM | TGI (M14 melanoma): 3.85 µM | TGI (UACC-62 melanoma): 3.37 µM | TGI (786-0 renal): 3.04 µM | TGI (SF-539 CNS): 3.07 µM | TGI (HOP-62 NSCLC): 3.38 µM | TGI (MOLT-4 leukemia): 1.72 µM | TGI (MDA-N): 3.19 µM | TGI (MALME-3M melanoma): 3.84 µM | TGI (TK-10 renal): 3.37 µM | TGI (SNB-75 CNS): 5.55 µM | TGI (OVCAR-5 ovarian): 40.5 µM | TGI (UO-31 renal): 3.78 µM | TGI (SNB-19 CNS): 8.11 µM | TGI (SF-295 CNS): 3.21 µM | TGI (HS 578T breast): 4.22 µM | TGI (CCRF-CEM leukemia): 9.92 µM | TGI (OVCAR-8 ovarian): 3.29 µM

COC(=O)CSC1CC(=O)c2c(Cl)sc(Cl)c21 (centres undefined)
TGI (DU-145 prostate): > 100 µM | TGI (SK-MEL-2 melanoma): > 100 µM | TGI (OVCAR-4 ovarian): > 100 µM | TGI (PC-3 prostate): > 100 µM | TGI (SN12C renal): > 100 µM | TGI (ACHN renal): > 100 µM | TGI (RXF 393 renal): > 100 µM | TGI (BT-549 breast): > 100 µM | TGI (NCI-H460 lung): > 100 µM | TGI (HOP-92 NSCLC): > 100 µM | TGI (T-47D breast): > 100 µM | TGI (SK-OV-3 ovarian): > 100 µM | TGI (COLO 205 colon): > 100 µM | TGI (LOX IMVI melanoma): > 100 µM | TGI (EKVX NSCLC): > 100 µM | TGI (HT29 colon): > 100 µM | TGI (CAKI-1 renal): > 100 µM | TGI (HCC-2998 colon): > 100 µM | TGI (SK-MEL-5 melanoma): > 100 µM | TGI (SK-MEL-28 melanoma): > 100 µM | TGI (HCT-116 colon): > 100 µM | TGI (MDA-MB-231 breast): > 100 µM | TGI (IGROV1 ovarian): > 100 µM | TGI (SW-620 colon): > 100 µM | TGI (MCF7 breast): > 100 µM | TGI (NCI-H23 lung): > 100 µM | TGI (MDA-MB-435): > 100 µM | TGI (U251 CNS): > 100 µM | TGI (SF-268 CNS): > 100 µM | TGI (A549 NSCLC): > 100 µM | TGI (NCI-H522 lung): > 100 µM | TGI (UACC-257 melanoma): > 100 µM | TGI (HCT-15 colon): > 100 µM | TGI (KM12 colon): > 100 µM | TGI (M14 melanoma): > 100 µM | TGI (UACC-62 melanoma): > 100 µM | TGI (786-0 renal): > 100 µM | TGI (HOP-62 NSCLC): > 100 µM | TGI (MOLT-4 leukemia): > 100 µM | TGI (MDA-N): > 100 µM | TGI (MALME-3M melanoma): > 100 µM | TGI (TK-10 renal): > 100 µM | TGI (SR leukemia): > 100 µM | TGI (SNB-75 CNS): > 100 µM | TGI (OVCAR-5 ovarian): > 100 µM | TGI (UO-31 renal): > 100 µM | TGI (SNB-19 CNS): > 100 µM | TGI (SF-295 CNS): > 100 µM | TGI (HS 578T breast): > 100 µM | TGI (CCRF-CEM leukemia): > 100 µM | TGI (K-562 leukemia): > 100 µM | TGI (OVCAR-8 ovarian): > 100 µM

COc1ccc(OC)c(NC(=O)c2c(Cl)c(Cl)c(Cl)c(Cl)c2-c2nc3ccccc3[nH]2)c1
TGI (RPMI-8226 leukemia): > 100 µM | TGI (DU-145 prostate): > 100 µM | TGI (OVCAR-4 ovarian): > 100 µM | TGI (PC-3 prostate): > 100 µM | TGI (SN12C renal): > 100 µM | TGI (NCI-H226 lung): > 100 µM | TGI (ACHN renal): > 100 µM | TGI (RXF 393 renal): > 100 µM | TGI (BT-549 breast): > 100 µM | TGI (NCI-H460 lung): > 100 µM | TGI (HOP-92 NSCLC): > 100 µM | TGI (T-47D breast): > 100 µM | TGI (NCI/ADR-RES ovarian): > 100 µM | TGI (SK-OV-3 ovarian): > 100 µM | TGI (COLO 205 colon): > 100 µM | TGI (A498 renal): > 100 µM | TGI (LOX IMVI melanoma): > 100 µM | TGI (EKVX NSCLC): > 100 µM | TGI (HT29 colon): > 100 µM | TGI (CAKI-1 renal): > 100 µM | TGI (HCC-2998 colon): > 100 µM | TGI (SK-MEL-5 melanoma): > 100 µM | TGI (SK-MEL-28 melanoma): > 100 µM | TGI (HL-60(TB) leukemia): > 100 µM | TGI (HCT-116 colon): > 100 µM | TGI (IGROV1 ovarian): > 100 µM | TGI (OVCAR-3 ovarian): > 100 µM | TGI (SW-620 colon): > 100 µM | TGI (MCF7 breast): > 100 µM | TGI (NCI-H23 lung): > 100 µM | TGI (MDA-MB-435): > 100 µM | TGI (SF-268 CNS): > 100 µM | TGI (A549 NSCLC): > 100 µM | TGI (NCI-H522 lung): > 100 µM | TGI (UACC-257 melanoma): > 100 µM | TGI (HCT-15 colon): > 100 µM | TGI (KM12 colon): > 100 µM | TGI (M14 melanoma): > 100 µM | TGI (UACC-62 melanoma): > 100 µM | TGI (786-0 renal): > 100 µM | TGI (SF-539 CNS): > 100 µM | TGI (HOP-62 NSCLC): > 100 µM | TGI (MOLT-4 leukemia): > 100 µM | TGI (MDA-N): > 100 µM | TGI (MALME-3M melanoma): > 100 µM | TGI (SR leukemia): > 100 µM | TGI (SNB-75 CNS): > 100 µM | TGI (OVCAR-5 ovarian): > 100 µM | TGI (UO-31 renal): > 100 µM | TGI (SNB-19 CNS): > 100 µM | TGI (SF-295 CNS): > 100 µM | TGI (HS 578T breast): > 100 µM | TGI (CCRF-CEM leukemia): > 100 µM | TGI (K-562 leukemia): > 100 µM | TGI (OVCAR-8 ovarian): > 100 µM

From PubChem BioAssay (NCI)
